Our source for the IC50 values is patent US12655139B2, “Isoxazolidines as RIPK1 inhibitors and use thereof” (SANOFI, priority 2020, dated 2026).

One assay relates to U937 cells. Description: Cellular assay in U937 cells on cell death (necroptosis), TNFα/zVAD.fmk. Particulars: Homo sapiens, U-937, Table 2; read-out: U937 IC50. In kind it is cell-based. A digest of the protocol: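 U937 cells with 100 ng/ml TNFα plus 50 μM zVAD.fmk (pre-addition suspension levels) received 10 compound concentrations (10 μM–0.26 nM or 1 μM–0.07 nM) for 18–24 h at 37 °C. Live cells were read by MTS formazan absorbance at 490 nm after 4 h. % inhibition is relative to the maximal value without TNFα/zVAD.fmk.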

In assay [1] the target is T1, hRIPK1 (aa 1-375) fusion protein (Homo sapiens, UniProt Q13546).
T1 construct: hRIPK1 (aa 1-375) fusion protein
T1 sequence (Q13546 1-375): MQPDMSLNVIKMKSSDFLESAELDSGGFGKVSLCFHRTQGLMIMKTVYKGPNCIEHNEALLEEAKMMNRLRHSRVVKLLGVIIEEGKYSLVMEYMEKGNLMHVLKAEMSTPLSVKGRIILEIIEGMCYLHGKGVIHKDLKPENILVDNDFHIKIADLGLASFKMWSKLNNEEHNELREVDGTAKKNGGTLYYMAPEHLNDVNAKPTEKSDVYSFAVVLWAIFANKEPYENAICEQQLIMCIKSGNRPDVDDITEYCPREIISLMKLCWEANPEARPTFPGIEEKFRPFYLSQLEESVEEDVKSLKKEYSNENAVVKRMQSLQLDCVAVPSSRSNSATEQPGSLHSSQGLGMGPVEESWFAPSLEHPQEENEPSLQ
The assay can be described thus: ADP-Glo kinase assay, RIPK1 autophosphorylation. The class given is biochemical. Particulars: Table 1. In general terms: In ADP-Glo the light output rises with the ADP produced.

pIC50: −log10 of the molar value. Where a name gives a salt, the structure may show the parent alone.

The pIC50 is −log10 of the IC50, conventionally taken in molar units. Regarding `Cc1c(F)cncc1[C@@H]1CCON1C(=O)C1CCN(c2nccc(C#N)n2)CC1` [compound 140, (S)-2-(4-(3-(5-fluoro-4-methylpyridin-3-yl)isoxazolidine-2-carbonyl)piperidin-1-yl)pyrimidine-4-carbonitrile], the figures for the pIC50 (with U937 cells; in assay [1]) were 6.26 and 7.15, respectively.

As to `Cc1c(F)cncc1[C@@H]1CCON1C(=O)C1CCN(c2nccc(C(N)=O)n2)CC1` [compound 141, (S)-2-(4-(3-(5-fluoro-4-methylpyridin-3-yl)isoxazolidine-2-carbonyl)piperidin-1-yl)pyrimidine-4-carboxamide], the pIC50 in the assay on U937 cells is 6.60; in assay [1] it was 7.09.

As for `Cc1c(F)cncc1[C@@H]1CCON1C(=O)C1CCN(c2cc(C(N)=O)ncn2)CC1` [compound 142, (S)-6-(4-(3-(5-fluoro-4-methylpyridin-3-yl)isoxazolidine-2-carbonyl)piperidin-1-yl)pyrimidine-4-carboxamide], the negative logarithm of the IC50 (pIC50) is 5.52 in the assay with U937 cells and 6.39 in assay [1].

With `Cc1c(F)cncc1[C@@H]1CCON1C(=O)C1CCN(c2cc(C#N)ncn2)CC1` [compound 143, (S)-6-(4-(3-(5-fluoro-4-methylpyridin-3-yl)isoxazolidine-2-carbonyl)piperidin-1-yl)pyrimidine-4-carbonitrile], the negative-log IC50 (pIC50) was 5.75 with U937 cells and 6.49 in assay [1].

As for `COc1nccc(N2CCC(C(=O)N3OCC[C@H]3c3cncc(C#N)c3)CC2)n1` [compound 144, 5-[(3S)-2-[1-(2-methoxypyrimidin-4-yl)piperidine-4-carbonyl]isoxazolidin-3-yl]pyridine-3-carbonitrile], the pIC50 in the assay with U937 cells is 6.27; in assay [1] it was 7.12.

On to `N#Cc1cncc([C@@H]2CCON2C(=O)C2CCN(c3ccnc(C#N)n3)CC2)c1` [compound 145, 4-[4-[(3S)-3-(5-cyano-3-pyridyl)isoxazolidine-2-carbonyl]-1-piperidyl]pyrimidine-2-carbonitrile], for which the pIC50 was 6.83 in the assay on U937 cells and 7.33 in assay [1].

Consider `CSc1nccc(N2CCC(C(=O)N3OCC[C@H]3c3cncc(C#N)c3)CC2)n1` [compound 146, 5-[(3S)-2-[1-(2-methylsulfanylpyrimidin-4-yl)piperidine-4-carbonyl]isoxazolidin-3-yl]pyridine-3-carbonitrile], for which the values for the pIC50 (in the assay on U937 cells; in assay [1]) were 6.64 and 7.34, respectively.

As for `N#Cc1cncc([C@@H]2CCON2C(=O)C2CCN(c3ccnc(Cl)n3)CC2)c1` [compound 147, 5-[(3S)-2-[1-(2-chloropyrimidin-4-yl)piperidine-4-carbonyl]isoxazolidin-3-yl]pyridine-3-carbonitrile], the pIC50 with U937 cells was 7.24; in assay [1] it was 7.51.

Consider `CCOC(=O)c1nccc(N2CCC(C(=O)N3OCC[C@H]3c3cncc(C#N)c3)CC2)n1` [compound 149, ethyl 4-[4-[(3S)-3-(5-cyano-3-pyridyl)isoxazolidine-2-carbonyl]-1-piperidyl]pyrimidine-2-carboxylate], for which the negative logarithm of the IC50 (pIC50) is 5.21 in the assay on U937 cells and 6.43 in assay [1].

On to `Cc1coc([C@@H]2CCON2C(=O)C2CCN(c3nccc(C#N)n3)CC2)c1` [compound 150, (S)-2-(4-(3-(4-methylfuran-2-yl)isoxazolidine-2-carbonyl)piperidin-1-yl)pyrimidine-4-carbonitrile], for which the values for the negative-log IC50 (pIC50) (with U937 cells; in assay [1]) were 7.63 and 7.16, respectively.

On to `Cc1coc([C@@H]2CCON2C(=O)C2CCN(c3nccc(C(N)=O)n3)CC2)c1` [compound 151, (S)-2-(4-(3-(4-methylfuran-2-yl)isoxazolidine-2-carbonyl)piperidin-1-yl)pyrimidine-4-carboxamide 2,2,2-trifluoroacetate salt], for which the pIC50 in the assay on U937 cells is 7.60; in assay [1], 7.00.

Take `Cc1coc([C@@H]2CCON2C(=O)C2CCN(c3cc(C#N)ncn3)CC2)c1` [compound 152, (S)-6-(4-(3-(4-methylfuran-2-yl)isoxazolidine-2-carbonyl)piperidin-1-yl)pyrimidine-4-carbonitrile 2,2,2-trifluoroacetate salt]: the results for the pIC50 (in the assay on U937 cells; in assay [1]) were 6.89 and 6.88, respectively.

With `Cc1coc([C@@H]2CCON2C(=O)C2CCN(c3cc(C(N)=O)ncn3)CC2)c1` [compound 153, (S)-6-(4-(3-(4-methylfuran-2-yl)isoxazolidine-2-carbonyl)piperidin-1-yl)pyrimidine-4-carboxamide 2,2,2-trifluoroacetate salt], the pIC50 in the assay with U937 cells was 7.00; in assay [1] it was 6.99.

Take `Cc1cc([C@@H]2CCON2C(=O)C2CCN(c3nccc(C#N)n3)CC2)co1` [compound 162, (S)-2-(4-(3-(5-methylfuran-3-yl)isoxazolidine-2-carbonyl)piperidin-1-yl)pyrimidine-4-carbonitrile]: the negative-log IC50 (pIC50) in the assay on U937 cells is 8.27; in assay [1], 7.70.

Consider `Cc1cc([C@@H]2CCON2C(=O)C2CCN(c3cc(C#N)ncn3)CC2)co1` [compound 163, (S)-6-(4-(3-(5-methylfuran-3-yl)isoxazolidine-2-carbonyl)piperidin-1-yl)pyrimidine-4-carbonitrile], for which the figures for the pIC50 (in the assay with U937 cells; in assay [1]) were 8.22 and 7.68, respectively.

Turning to `N#Cc1cncc([C@@H]2CCON2C(=O)C2CCN(c3cc(F)ncn3)CC2)c1` [compound 169, (S)-5-(2-(1-(6-fluoropyrimidin-4-yl)piperidine-4-carbonyl)isoxazolidin-3-yl)nicotinonitrile], the pIC50 with U937 cells is 6.92; in assay [1], 7.63.

Take `N#Cc1cc([C@@H]2CCON2C(=O)C2CCN(c3nccc(C(N)=O)n3)CC2)cnn1` [compound 179, 2-[4-[(3S)-3-(6-cyanopyridazin-4-yl)isoxazolidine-2-carbonyl]-1-piperidyl]pyrimidine-4-carboxamide]: the pIC50 is 5.69 in the assay on U937 cells and 6.76 in assay [1].

In the case of `Cc1ccc([C@@H]2CCON2C(=O)C2CCN(c3ncc(C)c(C(N)=O)n3)CC2)s1` [compound 182, 5-methyl-2-[4-[(3S)-3-(5-methyl-2-thienyl)isoxazolidine-2-carbonyl]-1-piperidyl]pyrimidine-4-carboxamide], the values for the pIC50 (with U937 cells; in assay [1]) were 8.15 and 7.81, respectively.

On to `Cc1ccc([C@@H]2CCON2C(=O)C2CCN(c3ncnc(C(N)=O)c3F)CC2)cn1` [compound 187, 5-fluoro-6-[4-[(3S)-3-(6-methyl-3-pyridyl)isoxazolidine-2-carbonyl]-1-piperidyl]pyrimidine-4-carboxamide; trifluoroacetic acid], for which the negative-log IC50 (pIC50) is 6.49 in the assay with U937 cells and 7.18 in assay [1].
